From the NIST ThermoML archive (doi:10.1021/je400486p)
Numbers after ± are expanded uncertainties.

What was measured:
[1] = 101.3 kPa, Liquid; for viscosity: Concentric cylinders viscometry; for mass density: Vibrating tube method
[2] = refractive index (Na D-line) (dimensionless); details: 101.33 kPa, Liquid, Standard Abbe refractometry
[3] = xn = mol fraction of the nth substance listed; details: 101.3 kPa, Liquid, x1 = 1; for viscosity: Concentric cylinders viscometry; for mass density: Vibrating tube method
[4] = refractive index (Na D-line) (dimensionless); xn = mol fraction of the nth substance listed; details: 101.3 kPa, Liquid, Standard Abbe refractometry, x1 = 1

## COCCOCCOCCOCCOC [2,5,8,11,14-pentaoxapentadecane]
[1]; 288.15 K
  viscosity: 4.341 ± 0.051 mPa·s
  mass density: 1015.63 ± 0.24 kg/m3
[1]; 293.15 K
  viscosity: 3.834 ± 0.045 mPa·s
  mass density: 1011 ± 0.24 kg/m3
[1]; 298.15 K
  viscosity: 3.38 ± 0.04 mPa·s
  mass density: 1006.36 ± 0.23 kg/m3
[1]; 303.15 K
  viscosity: 3.004 ± 0.036 mPa·s
  mass density: 1001.73 ± 0.23 kg/m3
[1]; 308.15 K
  viscosity: 2.691 ± 0.032 mPa·s
  mass density: 997.104 ± 0.23 kg/m3
[1]; 313.15 K
  viscosity: 2.426 ± 0.029 mPa·s
  mass density: 992.481 ± 0.23 kg/m3
[1]; 318.15 K
  viscosity: 2.199 ± 0.026 mPa·s
  mass density: 987.859 ± 0.23 kg/m3
[1]; 323.15 K
  viscosity: 2.006 ± 0.024 mPa·s
  mass density: 983.234 ± 0.23 kg/m3
[2]; 288.15 K
  refractive index: 1.4345 ± 0.00037
[2]; 293.15 K
  refractive index: 1.43238 ± 0.00037
[2]; 298.15 K
  refractive index: 1.43027 ± 0.00037
[2]; 303.15 K
  refractive index: 1.42815 ± 0.00037
[2]; 308.15 K
  refractive index: 1.42603 ± 0.00037
[2]; 313.15 K
  refractive index: 1.42394 ± 0.00037
[2]; 318.15 K
  refractive index: 1.42183 ± 0.00037
[2]; 323.15 K
  refractive index: 1.41973 ± 0.00037

## CN1CCCC1=O [N-methylpyrrolidone]
[1]; 288.15 K
  viscosity: 1.99 ± 0.023 mPa·s
  mass density: 1037.3 ± 0.26 kg/m3
[1]; 293.15 K
  viscosity: 1.823 ± 0.021 mPa·s
  mass density: 1032.84 ± 0.26 kg/m3
[1]; 298.15 K
  viscosity: 1.679 ± 0.019 mPa·s
  mass density: 1028.38 ± 0.25 kg/m3
[1]; 303.15 K
  viscosity: 1.555 ± 0.018 mPa·s
  mass density: 1023.92 ± 0.25 kg/m3
[1]; 308.15 K
  viscosity: 1.444 ± 0.017 mPa·s
  mass density: 1019.46 ± 0.24 kg/m3
[1]; 313.15 K
  viscosity: 1.346 ± 0.016 mPa·s
  mass density: 1015 ± 0.24 kg/m3
[1]; 318.15 K
  viscosity: 1.259 ± 0.015 mPa·s
  mass density: 1010.53 ± 0.24 kg/m3
[1]; 323.15 K
  viscosity: 1.182 ± 0.014 mPa·s
  mass density: 1006.06 ± 0.23 kg/m3
[2]; 288.15 K
  refractive index: 1.47166 ± 0.00037
[2]; 293.15 K
  refractive index: 1.46952 ± 0.00037
[2]; 298.15 K
  refractive index: 1.46736 ± 0.00037
[2]; 303.15 K
  refractive index: 1.4652 ± 0.00037
[2]; 308.15 K
  refractive index: 1.46306 ± 0.00037
[2]; 313.15 K
  refractive index: 1.46095 ± 0.00037
[2]; 318.15 K
  refractive index: 1.45891 ± 0.00037
[2]; 323.15 K
  refractive index: 1.4568 ± 0.00037

## CCC(C)O (stereo not given) [butan-2-ol]
[1]; 288.15 K
  viscosity: 4.29 ± 0.047 mPa·s
  mass density: 810.654 ± 0.14 kg/m3
[1]; 293.15 K
  viscosity: 3.576 ± 0.039 mPa·s
  mass density: 806.62 ± 0.14 kg/m3
[1]; 298.15 K
  viscosity: 2.954 ± 0.033 mPa·s
  mass density: 802.502 ± 0.14 kg/m3
[1]; 303.15 K
  viscosity: 2.469 ± 0.028 mPa·s
  mass density: 798.302 ± 0.14 kg/m3
[1]; 308.15 K
  viscosity: 2.08 ± 0.024 mPa·s
  mass density: 794.003 ± 0.14 kg/m3
[1]; 313.15 K
  viscosity: 1.766 ± 0.02 mPa·s
  mass density: 789.609 ± 0.14 kg/m3
[1]; 318.15 K
  viscosity: 1.512 ± 0.017 mPa·s
  mass density: 785.109 ± 0.15 kg/m3
[1]; 323.15 K
  viscosity: 1.303 ± 0.015 mPa·s
  mass density: 780.499 ± 0.15 kg/m3
[2]; 288.15 K
  refractive index: 1.39959 ± 0.00033
[2]; 293.15 K
  refractive index: 1.39748 ± 0.00033
[2]; 298.15 K
  refractive index: 1.39534 ± 0.00033
[2]; 303.15 K
  refractive index: 1.39314 ± 0.00033
[2]; 308.15 K
  refractive index: 1.39086 ± 0.00033
[2]; 313.15 K
  refractive index: 1.38851 ± 0.00033
[2]; 318.15 K
  refractive index: 1.38617 ± 0.00033
[2]; 323.15 K
  refractive index: 1.38372 ± 0.00033

## CCC(C)O (stereo not given) [butan-2-ol] + CN1CCCC1=O
[3]; 288.15 K
  viscosity: 4.29 ± 0.051 mPa·s
  mass density: 810.654 ± 0.14 kg/m3
[3]; 293.15 K
  viscosity: 3.576 ± 0.042 mPa·s
  mass density: 806.62 ± 0.14 kg/m3
[3]; 298.15 K
  viscosity: 2.954 ± 0.035 mPa·s
  mass density: 802.502 ± 0.14 kg/m3
[3]; 303.15 K
  viscosity: 2.469 ± 0.03 mPa·s
  mass density: 798.302 ± 0.14 kg/m3
[3]; 308.15 K
  viscosity: 2.08 ± 0.025 mPa·s
  mass density: 794.003 ± 0.14 kg/m3
[3]; 313.15 K
  viscosity: 1.766 ± 0.022 mPa·s
  mass density: 789.609 ± 0.14 kg/m3
[3]; 318.15 K
  viscosity: 1.512 ± 0.019 mPa·s
  mass density: 785.109 ± 0.15 kg/m3
[3]; 323.15 K
  viscosity: 1.303 ± 0.016 mPa·s
  mass density: 780.499 ± 0.15 kg/m3
[4]; 288.15 K
  refractive index: 1.39959 ± 0.00033
[4]; 293.15 K
  refractive index: 1.39748 ± 0.00033
[4]; 298.15 K
  refractive index: 1.39534 ± 0.00033
[4]; 303.15 K
  refractive index: 1.39314 ± 0.00033
[4]; 308.15 K
  refractive index: 1.39086 ± 0.00033
[4]; 313.15 K
  refractive index: 1.38851 ± 0.00033
[4]; 318.15 K
  refractive index: 1.38617 ± 0.00033
[4]; 323.15 K
  refractive index: 1.38372 ± 0.00033

## CCC(C)O (stereo not given) [butan-2-ol] + COCCOCCOCCOCCOC
[3]; 288.15 K
  viscosity: 4.29 ± 0.047 mPa·s
  mass density: 810.654 ± 0.14 kg/m3
[3]; 293.15 K
  viscosity: 3.576 ± 0.039 mPa·s
  mass density: 806.62 ± 0.14 kg/m3
[3]; 298.15 K
  viscosity: 2.954 ± 0.033 mPa·s
  mass density: 802.502 ± 0.14 kg/m3
[3]; 303.15 K
  viscosity: 2.469 ± 0.028 mPa·s
  mass density: 798.302 ± 0.14 kg/m3
[3]; 308.15 K
  viscosity: 2.08 ± 0.024 mPa·s
  mass density: 794.003 ± 0.14 kg/m3
[3]; 313.15 K
  viscosity: 1.766 ± 0.02 mPa·s
  mass density: 789.609 ± 0.14 kg/m3
[3]; 318.15 K
  viscosity: 1.512 ± 0.017 mPa·s
  mass density: 785.109 ± 0.15 kg/m3
[3]; 323.15 K
  viscosity: 1.303 ± 0.015 mPa·s
  mass density: 780.499 ± 0.15 kg/m3
[4]; 288.15 K
  refractive index: 1.39959 ± 0.00033
[4]; 293.15 K
  refractive index: 1.39748 ± 0.00033
[4]; 298.15 K
  refractive index: 1.39534 ± 0.00033
[4]; 303.15 K
  refractive index: 1.39314 ± 0.00033
[4]; 308.15 K
  refractive index: 1.39086 ± 0.00033
[4]; 313.15 K
  refractive index: 1.38851 ± 0.00033
[4]; 318.15 K
  refractive index: 1.38617 ± 0.00033
[4]; 323.15 K
  refractive index: 1.38372 ± 0.00033
